Source: patent publication US20260138980A1, “SPIRO COMPOUNDS AND USES THEREOF IN THE FIELD OF MEDICINE” (Kind Pharmaceutical, priority 2023, published 2026)

system: EPO; test: Determination of EPO inhibition rate by compounds using Hep3B cells (EPO ELISA of culture supernatant); type: cell-based; details: Homo sapiens, EPO induced with 30 μM (6′-hydroxy-3′-(4-methoxyphenyl)-8′-oxo-8′H-spiro[cyclopentane-1,5′-indolizine]-7′-carbonyl)glycine or its analogues, test compound 48 hours
Method: Hep3B cells (from the Cell Bank of the Chinese Academy of Sciences, TCHu106) were seeded in a plate at a density of 5×10^4/mL and incubated overnight at 37° C. in a 5% CO2 incubator (Thermo Scientific BB150). The next day, the culture medium was replaced with medium containing 0.5% FBS (VivaCell C04001-500) to starve the cells for 6 hours. Subsequently, a DMSO solution of (6′-hydroxy-3′-(4-methoxyphenyl)-8′-oxo-8′H-spiro[cyclopentane-1,5′-indolizine]-7′-carbonyl)glycine or its analogues was added to achieve a final concentration of 30 μM. The plate was returned to the 37° C., 5% CO2 incubator for an additional 24 hours. Then, a DMSO solution of the test compound was added to achieve final concentrations of 30000 nM, 7500 nM, 1875 nM, 469 nM, 117 nM, 29 nM, 7.3 nM, 1.8 nM, 0.5 nM, and 0 nM (ten concentrations in total). Treatment continued for 48 hours. Cell culture supernatants were collected for EPO ELISA detection. The assay was performed according to the instructions of the ELISA kit (Sangon Biotech (Shanghai) Co., Ltd., D711311-0096). Absorbance was read at a wavelength of 450 nm using a microplate reader (Thermo Scientific Multiskan Go, 511191200).
The compound inhibition rate was calculated using the formula: Inhibition Rate=1-100%*(EPO value of the treated well−EPO value of the blank well)/(EPO value of the Control well−EPO value of the blank well). The IC50 value was calculated by linear fitting of the inhibition rates. Herein, the Control well refers to the cell-containing well treated for 72 hours with a DMSO solution containing 0 nM of the test compound but containing 30 μM of (6′-hydroxy-3′-(4-methoxyphenyl)-8′-oxo-8′H-spiro[cyclopentane-1,5′-indolizine]-7′-carbonyl)glycine or its analogues. The EPO level in this well was set as 100%. The blank well refers to a cell-containing well without the addition of any compound.

Row | SMILES | IC50 [nM]
1 | FC1=CCC2(CN3C=C(C(F)(F)F)C=C(OC(F)F)C3=N2)c2ccnc(Cl)c21 (racemic) [Example 1, 1′-Chloro-8-difluoromethoxy-8′-fluoro-6-trifluoromethyl-3H,6′H-spiro[imidazo[1,2-a]pyridine-2,5′-isoquinoline]] | 29
2 | FC(F)OC1=CC(C(F)(F)F)=CN2CC3(CC=Cc4c3ccnc4Cl)N=C12 (racemic) [Example 2, 1′-Chloro-8-difluoromethoxy-6-trifluoromethyl-3H,6′H-spiro[imidazo[1,2-a]pyridine-2,5′-isoquinoline]] | 35.8
3 | FC1=Cc2c(ccnc2Cl)C2(C1)CN1C=C(C(F)(F)F)C=C(OC(F)F)C1=N2 (racemic) [Example 10, 1′-Chloro-8-difluoromethoxy-7′-fluoro-6-trifluoromethyl-3H,6′H-spiro[imidazo[1,2-a]pyridine-2,5′-isoquinoline]] | 26.8
4 | FC1=CCC2(CN3C=C(C(F)(F)F)C=C(OC(F)F)C3=N2)c2cccc(F)c21 (racemic) [Example 15, 8-(Difluoromethoxy)-4′,5′-difluoro-6-(trifluoromethyl)-2′H,3H-spiro[imidazo[1,2-a]pyridine-2,1′-naphthalene]] | 3.04
5 | Fc1cccc2c1C=CCC21CN2C=C(C(F)(F)F)C=C(OC(F)F)C2=N1 (racemic) [Example 16, 8-(Difluoromethoxy)-5′-fluoro-6-trifluoromethyl-2′H,3H-spiro[imidazo[1,2-a]pyridine-2,1′-naphthalene]] | 7.01
6 | FC1=CC[C@@]2(CN3C=C(C(F)(F)F)C=C(OC(F)F)C3=N2)c2ccnc(Cl)c21 (single isomer, unassigned) [Example 1-A] | 17.9
7 | FC1=CC[C@]2(CN3C=C(C(F)(F)F)C=C(OC(F)F)C3=N2)c2ccnc(Cl)c21 (single isomer, unassigned) [Example 1-B] | 563
8 | FC(F)OC1=CC(C(F)(F)F)=CN2C[C@]3(CC=Cc4c3ccnc4Cl)N=C12 (single isomer, unassigned) [Example 2-A] | 365
9 | FC(F)OC1=CC(C(F)(F)F)=CN2C[C@@]3(CC=Cc4c3ccnc4Cl)N=C12 (single isomer, unassigned) [Example 2-B] | 18.7
10 | FC1=Cc2c(ccnc2Cl)[C@]2(C1)CN1C=C(C(F)(F)F)C=C(OC(F)F)C1=N2 (single isomer, unassigned) [Example 10-A] | 2150
11 | FC1=Cc2c(ccnc2Cl)[C@@]2(C1)CN1C=C(C(F)(F)F)C=C(OC(F)F)C1=N2 (single isomer, unassigned) [Example 10-B] | 26.9
12 | FC1=CC[C@@]2(CN3C=C(C(F)(F)F)C=C(OC(F)F)C3=N2)c2cccc(F)c21 (single isomer, unassigned) [Example 15-A] | 2.12
13 | FC1=CC[C@]2(CN3C=C(C(F)(F)F)C=C(OC(F)F)C3=N2)c2cccc(F)c21 (single isomer, unassigned) [Example 15-B] | 109
14 | Fc1cccc2c1C=CC[C@@]21CN2C=C(C(F)(F)F)C=C(OC(F)F)C2=N1 (single isomer, unassigned) [Example 16-A] | 6.45
15 | Fc1cccc2c1C=CC[C@]21CN2C=C(C(F)(F)F)C=C(OC(F)F)C2=N1 (single isomer, unassigned) [Example 16-B] | 20.4
16 | CC1=CCC2(CN3C=C(C(F)(F)F)C=C(OC(F)F)C3=N2)c2ccnc(Cl)c21 (stereo not shown) [Example 6, 1′-Chloro-8-difluoromethoxy-8′-methyl-6-trifluoromethyl-3H,6′H-spiro[imidazo[1,2-a]pyridine-2,5′-isoquinoline]] | 181
17 | FC(F)OC1=CC(C(F)(F)F)=CN2CC3(CC=C(Cl)c4c3ccnc4Cl)N=C12 (stereo not shown) [Example 7, 1′,8′-Dichloro-8-difluoromethoxy-6-trifluoromethyl-3H,6′H-spiro[imidazo[1,2-a]pyridine-2,5′-isoquinoline]] | 24.4
18 | FC(F)OC1=CC(C(F)(F)F)=CN2CC3(CC=C(C(F)(F)F)c4c3ccnc4Cl)N=C12 (stereo not shown) [Example 8, 1′-Chloro-8-difluoromethoxy-6,8′-bis(trifluoromethyl)-3H,6′H-spiro[imidazo[1,2-a]pyridine-2,5′-isoquinoline]] | 148
19 | FC(F)OC1=CC(C(F)(F)F)=CN2CC3(CC(Cl)=Cc4c3ccnc4Cl)N=C12 (stereo not shown) [Example 9, 1′,7′-Dichloro-8-difluoromethoxy-6-trifluoromethyl-3H,6′H-spiro[imidazo[1,2-a]pyridine-2,5′-isoquinoline]] | 47.9
20 | FC1=CCC2(CN3C=C(C(F)(F)F)C=C(OC(F)F)C3=N2)c2ccc(Br)c(F)c21 (stereo not shown) [Example 11, 6′-Bromo-8-difluoromethoxy-4′,5′-difluoro-6-trifluoromethyl-2′H,3H-spiro[imidazo[1,2-a]pyridine-2,1′-naphthalene]] | 12.2
21 | Fc1c(Br)ccc2c1C=CCC21CN2C=C(C(F)(F)F)C=C(OC(F)F)C2=N1 (stereo not shown) [Example 12, 6′-Bromo-8-(difluoromethoxy)-5′-fluoro-6-(trifluoromethyl)-2′H,3H-spiro[imidazo[1,2-a]pyridine-2,1′-naphthalene]] | 1.08
22 | Fc1c(Br)ccc2c1C(I)=CCC21CN2C=C(C(F)(F)F)C=C(OC(F)F)C2=N1 (stereo not shown) [Example 13, 6′-Bromo-8-difluoromethoxy-5′-fluoro-4′-iodo-6-trifluoromethyl-2′H,3H-spiro[imidazo[1,2-a]pyridine-2,1′-naphthalene]] | 116
23 | Fc1c(Br)ccc2c1C(Cl)=CCC21CN2C=C(C(F)(F)F)C=C(OC(F)F)C2=N1 (stereo not shown) [Example 14, 6′-Bromo-4′-chloro-8-difluoromethoxy-5′-fluoro-6-trifluoromethyl-2′H,3H-spiro[imidazo[1,2-a]pyridine-2,1′-naphthalene]] | 4.12
24 | Cc1nccc2c1C=CCC21CN2C=C(C(F)(F)F)C=C(OC(F)F)C2=N1 (stereo not shown) [Example 17, 8-Difluoromethoxy-1′-methyl-6-trifluoromethyl-3H,6′H-spiro[imidazo[1,2-a]pyridine-2,5′-isoquinoline]] | 705
25 | Cc1ccc2c(c1F)C=CCC21CN2C=C(C(F)(F)F)C=C(OC(F)F)C2=N1 (stereo not shown) [Example 18, 8-Difluoromethoxy-5′-fluoro-6′-methyl-6-trifluoromethyl-2′H,3H-spiro[imidazo[1,2-a]pyridine-2,1′-naphthalene]] | 3.48
26 | Fc1cccc2c1C(I)=CCC21CN2C=C(C(F)(F)F)C=C(OC(F)F)C2=N1 (stereo not shown) [Example 19, 8-Difluoromethoxy-5′-fluoro-4′-iodo-6-trifluoromethyl-2′H,3H-spiro[imidazo[1,2-a]pyridine-2,1′-naphthalene]] | 302
27 | FC(F)OC1=CC(C(F)(F)F)=CN2CC3(CC=Cc4cnccc43)N=C12 (stereo not shown) [Example 20, 8-Difluoromethoxy-6-trifluoromethyl-3H,6′H-spiro[imidazo[1,2-a]pyridine-2,5′-isoquinoline]] | 813
28 | O=[N+]([O-])c1c(Nc2cc(F)cc(Cl)c2)ccc2nonc12 [positive control compound, reference compound] | 497
